Test results: ChEMBL document CHEMBL1649470 (Antimicrob Agents Chemother, 2009)
Calls of active or inactive are those of the source. The calls are words filed in the database; no cut-off is given here.

Columns and labels:
[1] = tested on: Influenza A virus; test: Antiviral activity against Influenza A virus (A/whooper swan/Mongolia/1/2009(H5N1)) infected in BALB/c mouse assessed as virus-induced change body weight at 20 mg/kg, po BID for 5 days measured on day 6 postinfection; type: functional
[2] = tested on: Influenza A virus; conditions: dose 20 mg/kg; route oral
[3] = tested on: Influenza A virus; test: Antiviral activity against Influenza A virus (A/Thailand/1(KAN-1)/2004(H5N1)) infected in BALB/c mouse assessed as virus-induced change body weight at 20 mg/kg, po BID for 5 days measured on day 9 postinfection; type: functional
[4] = tested on: Influenza A virus; test: Antiviral activity against Influenza A virus (A/chicken/Yogjakarta/BBVet-IX/2004(H5N1)) infected in BALB/c mouse assessed as virus-induced change body weight at 20 mg/kg, po BID for 5 days measured on day 15 postinfection; type: functional
[5] = tested on: Influenza A virus; test: Antiviral activity against Influenza A virus (A/Thailand/1(KAN-1)/2004(H5N1)) infected in BALB/c mouse assessed as virus-induced change body weight at 20 mg/kg, po BID for 5 days measured on day 6 postinfection; type: functional
[6] = tested on: Influenza A virus; test: Antiviral activity against Influenza A virus (A/whooper swan/Mongolia/1/2009(H5N1)) infected in BALB/c mouse assessed as decrease in viral load in lung at 20 mg/kg, po BID for 5 days measured on day 9 postinfection; type: functional, organism-based; set-up: dose 20 mg/kg
[7] = tested on: Influenza A virus; test: Antiviral activity against Influenza A virus (A/whooper swan/Mongolia/1/2009(H5N1)) infected in BALB/c mouse assessed as decrease in viral load in brain at 20 mg/kg, po BID for 5 days measured on day 3 postinfection; type: functional, organism-based; set-up: dose 20 mg/kg
[8] = tested on: Influenza A virus; test: Antiviral activity against Influenza A virus (A/whooper swan/Mongolia/1/2009(H5N1)) infected in BALB/c mouse assessed as mean day to death at 20 mg/kg, po BID for 5 days measured post last dose; type: functional
[9] = tested on: Influenza A virus; test: Antiviral activity against Influenza A virus (A/Thailand/1(KAN-1)/2004(H5N1)) infected in BALB/c mouse assessed as decrease in viral load in lung at 20 mg/kg, po BID for 5 days measured on day 6 postinfection; type: functional, organism-based; set-up: dose 20 mg/kg
[10] = tested on: Influenza A virus; test: Antiviral activity against Influenza A virus (A/Thailand/1(KAN-1)/2004(H5N1)) infected in BALB/c mouse assessed as mean day to death at 20 mg/kg, po BID for 5 days measured post last dose; type: functional
[11] = tested on: Influenza A virus; conditions: 120 h, route oral
[12] = tested on: Influenza A virus; test: Antiviral activity against Influenza A virus (A/duck/Laos/25/2006(H5N1)) infected in BALB/c mouse assessed as virus-induced change body weight at 20 mg/kg, po BID for 5 days measured on day 9 postinfection; type: functional
[13] = tested on: Influenza A virus; test: Antiviral activity against Influenza A virus (A/chicken/Yogjakarta/BBVet-IX/2004(H5N1)) infected in BALB/c mouse assessed as decrease in viral load in lung at 20 mg/kg, po BID for 5 days measured on day 9 postinfection; type: functional, organism-based; set-up: dose 20 mg/kg
[14] = tested on: Influenza A virus; test: Antiviral activity against Influenza A virus (A/chicken/Yogjakarta/BBVet-IX/2004(H5N1)) infected in BALB/c mouse assessed as virus-induced change body weight at 20 mg/kg, po BID for 5 days measured on day 9 postinfection; type: functional
[15] = tested on: Influenza A virus; test: Antiviral activity against Influenza A virus (A/duck/Laos/25/2006(H5N1)) infected in BALB/c mouse assessed as decrease in viral load in brain at 20 mg/kg, po BID for 5 days measured on day 9 postinfection; type: functional, organism-based; set-up: dose 20 mg/kg
[16] = tested on: Influenza A virus; test: Antiviral activity against Influenza A virus (A/Thailand/1(KAN-1)/2004(H5N1)) infected in BALB/c mouse assessed as survival rate at 20 mg/kg, po BID for 5 days measured post last dose; type: functional; conditions: 120 h
[17] = tested on: Influenza A virus; test: Antiviral activity against Influenza A virus (A/chicken/Yogjakarta/BBVet-IX/2004(H5N1)) infected in BALB/c mouse assessed as decrease in viral load in brain at 20 mg/kg, po BID for 5 days measured on day 9 postinfection; type: functional, organism-based; set-up: dose 20 mg/kg
[18] = tested on: Influenza A virus; test: Antiviral activity against Influenza A virus (A/chicken/Yogjakarta/BBVet-IX/2004(H5N1)) infected in BALB/c mouse assessed as virus-induced change body weight at 20 mg/kg, po BID for 5 days measured on day 6 postinfection; type: functional
[19] = tested on: Influenza A virus; conditions: dose 20 mg/kg; route oral; remark: listed apart in the source
[20] = tested on: Influenza A virus; test: Antiviral activity against Influenza A virus (A/Thailand/1(KAN-1)/2004(H5N1)) infected in BALB/c mouse assessed as decrease in viral load in brain at 20 mg/kg, po BID for 5 days measured on day 9 postinfection; type: functional, organism-based; set-up: dose 20 mg/kg
[21] = tested on: Influenza A virus; test: Antiviral activity against Influenza A virus (A/duck/Laos/25/2006(H5N1)) infected in BALB/c mouse assessed as survival rate at 20 mg/kg, po BID for 5 days measured post last dose; type: functional; conditions: 120 h
[22] = tested on: Influenza A virus; test: Antiviral activity against Influenza A virus (A/chicken/Yogjakarta/BBVet-IX/2004(H5N1)) infected in BALB/c mouse assessed as survival rate at 20 mg/kg, po BID for 5 days measured post last dose; type: functional; conditions: 120 h
[23] = tested on: Influenza A virus; test: Antiviral activity against Influenza A virus (A/whooper swan/Mongolia/1/2009(H5N1)) infected in BALB/c mouse assessed as decrease in viral load in brain at 20 mg/kg, po BID for 5 days measured on day 6 postinfection; type: functional, organism-based; set-up: dose 20 mg/kg
[24] = tested on: Influenza A virus; test: Antiviral activity against Influenza A virus (A/whooper swan/Mongolia/1/2009(H5N1)) infected in BALB/c mouse assessed as decrease in viral load in brain at 20 mg/kg, po BID for 5 days measured on day 9 postinfection; type: functional, organism-based; set-up: dose 20 mg/kg
[25] = tested on: Influenza A virus; test: Antiviral activity against Influenza A virus (A/chicken/Yogjakarta/BBVet-IX/2004(H5N1)) infected in BALB/c mouse assessed as mean day to death at 20 mg/kg, po BID for 5 days measured post last dose; type: functional
[26] = tested on: Influenza A virus; test: Antiviral activity against Influenza A virus (A/whooper swan/Mongolia/1/2009(H5N1)) infected in BALB/c mouse assessed as survival rate at 20 mg/kg, po BID for 5 days measured post last dose; type: functional; conditions: 120 h
[27] = tested on: Influenza A virus; test: Antiviral activity against Influenza A virus (A/duck/Laos/25/2006(H5N1)) infected in BALB/c mouse assessed as virus-induced change body weight at 20 mg/kg, po BID for 5 days measured on day 15 postinfection; type: functional
[28] = tested on: Influenza A virus; test: Antiviral activity against Influenza A virus (A/whooper swan/Mongolia/1/2009(H5N1)) infected in BALB/c mouse assessed as virus-induced change body weight at 20 mg/kg, po BID for 5 days measured on day 15 postinfection; type: functional
[29] = tested on: Influenza A virus; test: Antiviral activity against Influenza A virus (A/whooper swan/Mongolia/1/2009(H5N1)) infected in BALB/c mouse assessed as virus-induced change body weight at 20 mg/kg, po BID for 5 days measured on day 9 postinfection; type: functional
[30] = tested on: Influenza A virus; test: Antiviral activity against Influenza A virus (A/duck/Laos/25/2006(H5N1)) infected in BALB/c mouse assessed as virus-induced change body weight at 20 mg/kg, po BID for 5 days measured on day 6 postinfection; type: functional
[31] = tested on: Influenza A virus; test: Antiviral activity against Influenza A virus (A/duck/Laos/25/2006(H5N1)) infected in BALB/c mouse assessed as decrease in viral load in lung at 20 mg/kg, po BID for 5 days measured on day 3 postinfection; type: functional, organism-based; set-up: dose 20 mg/kg
[32] = tested on: Influenza A virus; test: Antiviral activity against Influenza A virus (A/Thailand/1(KAN-1)/2004(H5N1)) infected in BALB/c mouse assessed as virus-induced change body weight at 20 mg/kg, po BID for 5 days measured on day 15 postinfection; type: functional
[33] = tested on: Influenza A virus; test: Antiviral activity against Influenza A virus (A/duck/Laos/25/2006(H5N1)) infected in BALB/c mouse assessed as mean day to death at 20 mg/kg, po BID for 5 days measured post last dose; type: functional
[34] = tested on: Influenza A virus; test: Antiviral activity against Influenza A virus (A/Thailand/1(KAN-1)/2004(H5N1)) infected in BALB/c mouse assessed as decrease in viral load in lung at 20 mg/kg, po BID for 5 days measured on day 9 postinfection; type: functional, organism-based; set-up: dose 20 mg/kg

## CCOC(=O)C1=C[C@@H](OC(CC)CC)[C@H](NC(C)=O)[C@@H](N)C1 [OSELTAMIVIR]
[1]
  Activity: -7%
[2]
  Time: 8 days
[3]
  Activity: -17.6%
[4]
  Activity: 1.2%
[5]
  Activity: -10.7%
[6]
  Activity: Active
[7]
  Activity: inactive
[8]
  Time: 9.7 days
[9]
  Activity: Active
[10]
  Time: 10 days
[11]
  survival at 20 mg/kg: 0%
[12]
  Activity: -20.3%
[13]
  Activity: Active
[14]
  Activity: -11.2%
[15]
  Activity: Active
[16]
  survival at 20 mg/kg: 80%
[17]
  Activity: Active
[18]
  Activity: -22%
[19]
  Activity: -24.4%
[20]
  Activity: inactive
[21]
  survival at 20 mg/kg: 60%
[22]
  survival at 20 mg/kg: 100%
[23]
  Activity: inactive
[24]
  Activity: inactive
[25]
  Time: >21 days
[26]
  survival at 20 mg/kg: 70%
[27]
  Activity: -7.6%
[28]
  Activity: -10.6%
[29]
  Activity: -18.2%
[30]
  Activity: -0.2%
[31]
  inhibition: Active
[32]
  Activity: -2.1%
[33]
  Time: 13.5 days
[34]
  Activity: Active
